In patent US12624050B2, “Three fused ring derivative-containing salt or crystal form and pharmaceutical composition thereof” (Shanghai Hansoh Biomedical Co., Ltd., priority 2019, dated 2026):

Test: Screening of salts of the compound with counter ion acids
Type: physicochemical
Settings: for Results (salt screening): acetone 0.2 mL, solid-liquid reaction, room temperature; for Results (salt screening) / Post-treatment (salt screening): base:acid=1:1.2; for Experimental results (salt screening): natural evaporation at room temperature; for Post-treatment (salt screening): suspended in 0.2 mL of methanol at 50° C.
Experimental: 300 mg of free base was weighed, 15 mL of THE was added, and the mixture was heated to 50° C. to dissolve completely. The solution of the free base in THE was divided into […], and a certain amount of acid was added to each part (molar reaction ratio of base:acid=1:1.2), detailed as follows:
20 mg of free base was weighed, 0.2 mL of acetone was added, and the mixture was stirred and suspended at room temperature. Acid (molar reaction ratio of base:acid=1:1.2) was added to the suspension system for reaction, detailed as follows: […]
20 mg of free base was weighed, 0.2 mL of methanol was added, and the mixture was stirred and suspended at 50° C. Acid (molar reaction ratio of base:acid=1:1.2) was added to the suspension system for reaction, detailed as follows:
THF was used as solvent in No. 1 to 10, and the free base was dissolved in THE to form a clear solution and then acid was added. Ethanol was used as solvent in No. 11 to 14, the free base was suspended in ethanol, and a clear solution formed after adding an acid. The clear solution formed in No. 1-14 was placed at room temperature without sealing the container to evaporate the solvent.

[1] = acid: 1M oxalic acid in ethanol
[2] = acid: 1M phosphoric acid in ethanol

With `C[C@H](Nc1ccc2c(c1)OCCn1cc(N3C(=O)SC[C@H]3C(F)F)nc1-2)C(N)=O` [Example 22, (S)-2-((2-((R)-4-(difluoromethyl)-2-oxothiazolidin-3-yl)-5,6-dihydrobenzo[f]imidazo[1,2-d][1,4]oxazepin-9-yl)amino)propionamide] the “Results (salt screening)” value (acid: 1M maleic acid in ethanol) was “No reaction, free base remained”, the “Results (salt screening)” value (acid: 1M methanesulfonic acid in ethanol) was “Mesylate was obtained” and the “Results (salt screening)” value [1] was “No reaction, free base remained”. The “Results (salt screening)” value [2] was “No reaction, free base remained”, the “Experimental results (salt screening)” value (THF as solvent, acid: Adipic acid) was “Oil formed” and the “Experimental results (salt screening)” value (THF as solvent, acid: Citric acid) was “Oil formed”. For the same compound, the “Experimental results (salt screening)” value (THF as solvent, acid: Fumaric acid) was “Oil formed”, the “Experimental results (salt screening)” value (THF as solvent, acid: Glycolic acid) was “Oil formed” and the “Experimental results (salt screening)” value (THF as solvent, acid: Maleic acid) was “Oil formed”. The “Experimental results (salt screening)” value (THF as solvent, acid: Malic acid) was “Oil formed”, the “Experimental results (salt screening)” value (THF as solvent, acid: Oxalic acid) was “Oil formed” and the “Experimental results (salt screening)” value (THF as solvent, acid: Phosphoric acid) was “Oil formed”. The “Experimental results (salt screening)” value (THF as solvent, acid: Succinic acid) was “Oil formed”, the “Experimental results (salt screening)” value (THF as solvent, acid: Tartaric acid) was “Oil formed” and the “Experimental results (salt screening)” value (ethanol as solvent, acid: Benzenesulfonic acid) was “Amorphous”. For the same compound, the “Experimental results (salt screening)” value (ethanol as solvent, acid: Hydrochloric acid) was “Amorphous”, the “Experimental results (salt screening)” value (ethanol as solvent, acid: Isethionic acid) was “Amorphous” and the “Experimental results (salt screening)” value (ethanol as solvent, acid: p-Toluenesulfonic acid) was “Amorphous”. For the same compound, the “Post-treatment (salt screening)” value (acid: 1M maleic acid in methanol) was “No reaction, free base remained”, the “Post-treatment (salt screening)” value [1] was “No reaction, free base remained” and the “Post-treatment (salt screening)” value [2] was “No reaction, free base remained”.
